Where only a bound is given, the exact number is not on record here.

Experiment [1] deals with A549 human lung cancer cell line harboring constitutively active Ras mutant. In words: MTT growth inhibition assay, A549. It counts as cell-based. The procedure: (§1) MCF-7 (breast cancer), T47D (breast cancer), Colo 205 (colon cancer), JM-1 (rat hepatoma), Sk Mel-2 (melanoma), PLC (human hepatoma), and HepG2 (human hepatoma) were obtained from American Type Cell Culture Collection. MCF-7 cells were grown in RPMI medium supplemented with 10% Fetal Bovine Serum. The remaining cell lines were grown in DMEM medium supplemented with 10% Fetal Bovine Serum. For the assay, cells were seeded into 96 well plates in medium containing 1% Fetal Bovine Serum and 100 μL of a cell suspension containing 5000 cells per well were used for each well. Cell growth was evaluated utilizing MTT ((3-(4,5-Dimethylthiazol-2-yl)-2,5-diphenyltetrazolium). The absorbance of the wells at 544 nm was determined by a FLUOstar/POLARstar Galaxy (BMG Lab Technologies GmbH) microplate reader.
(§2) The growth inhibitory activity of compounds was compared using the A549 human lung cancer cell line harboring constitutively active G12D Ras mutant with the help of an MTT assay. […] Stepwise extensions and truncations confirmed that the peptide had the optimal length (see Table 1).
(§3) The growth inhibitory activity of compounds was compared using the A549 human lung cancer cell line harboring constitutively active G12D Ras mutant with the help of an MTT assay.
Background: Tetrazolium dyes change colour on reduction, which living cells bring about.

The subject of experiment [2] is activated (GTP-bound) Ras in H358 human lung cancer cells. Kind of experiment: Raf-RBD pull-down of active (GTP-bound) Ras. It counts as cell-based. Particulars: 5 μM, varying exposure times. How it is done: H358 human lung cancer cells were grown in 6-well plates in DMEM medium containing 10% FBS. When the cells were about 70% confluent, the medium was replaced with DMEM containing 1% FBS. Two hours later, Ras inhibitors (kR-H6-48, HR-1, kR-4A-4, or kR-4B-2) were added to provide a final concentration of 5 μM.
After varying exposure times, the cells were rinsed with PBS and lysed. The lysates were cleared by centrifugation, incubated with immobilized Raf-RBD beads (which bind Ras) and analyzed by Western blot using manufacturer's protocols (Cytoskeleton, Inc., Denver, Colo.; Catalog No. BK008). The bands corresponding to active (GTP-bound) Ras were quantified with the help of MIPAV software.

The test system of experiment [3] is Ras-dependent cancer cells (H358, SKBR3, SKOV3, ID8, MPR-178). Kind of experiment: MTT growth assay on Ras-dependent cancer cells. The format is cell-based, human, murine. The note with it: 48 hours, 1% FBS. The procedure: Ras-dependent cancer cells (H358 human lung cancer cells, SKBR3 human breast cancer cells, SKOV3 human ovarian cancer cells, ID8 murine ovarian cancer cells, and MPR-178 murine prostate cancer cells) were grown in DMEM medium containing 1% FBS and exposed to varying concentrations of Ras inhibitors (kR-H6-48 and HR-1) for 48 hours. Cell growth was evaluated utilizing an MTT ((3-(4,5-Dimethylthiazol-2-yl)-2,5-diphenyltetrazolium) assay. The absorbance of the wells at 544 nm was determined by a FLUOstar/POLARstar Galaxy (BMG Lab Technologies GmbH, Ortenberg, Germany) microplate reader. The assays were performed on untreated (control) and test cells. Cellular responses were calculated from the data using the following formula: 100×[(T−T0)/(C−T0)] for T>T0 and 100×[(T−T0)/T0] for T<T0, wherein T0 corresponds to cell density at the time of drug addition.

Experiment [4] relates to H2009 lung adenocarcinoma cells (K-Ras mutant). In words: Growth inhibition, thoracic malignancy cell lines: H2009. It counts as cell-based.
Experiment [5] relates to H23 lung adenocarcinoma cells (K-Ras mutant). Kind of experiment: Growth inhibition, thoracic malignancy cell lines: H23. It counts as cell-based.
Experiment [6] has as its system Calu 6 lung adenocarcinoma cells (K-Ras mutant). In words: Growth inhibition, thoracic malignancy cell lines: Calu 6. It counts as cell-based. Particulars: Calu 6, K-Ras mutant.
The test system of experiment [7] is H358 broncheoalveolar cells (K-Ras mutant). In words: Growth inhibition, thoracic malignancy cell lines: H358. The format is cell-based, human.
Experiment [8] deals with H157 lung squamous cell carcinoma cells (K-Ras mutant). Kind of experiment: Growth inhibition, thoracic malignancy cell lines: H157. It counts as cell-based.
Experiment [9] concerns H460 large cell carcinoma cells (K-Ras mutant). In words: Growth inhibition, thoracic malignancy cell lines: H460. The format is cell-based, human.
Experiment [10] relates to Calu3 lung adenocarcinoma cells (K-Ras WT). Kind of experiment: Growth inhibition, thoracic malignancy cell lines: Calu3. The format is cell-based.
Experiment [11] concerns H2882 lung adenocarcinoma cells (K-Ras WT). In words: Growth inhibition, thoracic malignancy cell lines: H2882. It counts as cell-based.
Experiment [12] has as its system HCC95 lung squamous cell carcinoma cells (K-Ras WT). In words: Growth inhibition, thoracic malignancy cell lines: HCC95. The format is cell-based.
Experiment [13] concerns HCC15 lung squamous cell carcinoma cells (K-Ras WT). In words: Growth inhibition, thoracic malignancy cell lines: HCC15. The format is cell-based.
In experiment [14] the test system is H2373 malignant pleural mesothelioma cells (K-Ras WT). Kind of experiment: Growth inhibition, thoracic malignancy cell lines: H2373. It counts as cell-based.
The test system of experiment [15] is H2461 malignant pleural mesothelioma cells (K-Ras WT). Kind of experiment: Growth inhibition, thoracic malignancy cell lines: H2461. It counts as cell-based.
Experiment [16] concerns H2596 malignant pleural mesothelioma cells (K-Ras WT). Kind of experiment: Growth inhibition, thoracic malignancy cell lines: H2596. The format is cell-based.
The test system of experiment [17] is HP-1 malignant pleural mesothelioma cells (K-Ras WT). Kind of experiment: Growth inhibition, thoracic malignancy cell lines: HP-1. It counts as cell-based. The note with it: HP-1, K-Ras WT.
Experiment [18] concerns Ras protein in H2009 and H2592 cells. Kind of experiment: Western blot of Ras protein amount in cancer cells. The format is cell-based. Particulars: 0-3.0 μM, 18 hours. The procedure:
A further experiment was undertaken to determine the effect of analogs of helix 6 and HVR on the amount of K-Ras protein in cancer cells. H2009 (lung adenocarcinoma cells) and H2592 (plural mesothelioma cells) were exposed to varying concentrations (0-3.0 μM) of kR-4A-3, kR-4B-3, or kR-H6-3 for 18 hours. The cells then were lysed and the lysate was analyzed by Western blot using anti-Ras mAb (Cell Biolabs, Inc.).

For experiment [19], the system named is A549 human lung cancer cell line harboring constitutively active G12D Ras mutant. In words: MTT growth inhibition assay, A549. The format is cell-based. How it is done:
as §1, §2, §3

Experiment [20] deals with human lung tumor cell lines (A549, H460, and H1944) and a mouse astrocytoma cell line (187436 tu2) expressing mutated K-Ras. In words: Growth inhibition in cell lines expressing mutated K-Ras (FIGS. 2 and 3). The format is cell-based. Particulars: A549, H460, H1944, 187436 tu2. The source says:
The cell line was generated from astrocytoma developed in a transgenic mouse harboring a G12D mutation in K-Ras and inactivation of the Rb gene.

Experiment [21] addresses K-Ras in H2592 cells (Homo sapiens, UniProt P01116). Particulars: GI50 concentrations, 18 hours.
Excerpt: Goat anti-mouse antibodies with Alexa Fluor TM 594 (red) were used to visualize the anti-Ras mouse mAb.
In experiment [22] the test system is Lewis lung carcinoma LL/2 (LLC1) cells. Kind of experiment: Lewis lung carcinoma LLC1 isograft growth. Particulars: 10 mg/kg s.c. near the tumor every second day. The format is in vivo, female CB57Bl/6 mice. The procedure: Lewis lung carcinoma LL/2 (LLC1) (ATCC Catalog No. CRL-1642) cells were grown in DMEM medium containing 10% FBS. Cells were trypsinized and suspended in PBS. 3×10^6 LLC1 cells in 200 μl PBS were injected subcutaneously to the right flank of 8 weeks old female CB57Bl/6 mice.
Ras inhibitor injections started 2 weeks after LLC1 injections when tumors were at least 3 mm in diameter. For injections, solid kR-H6-48 was initially dissolved in DMSO to yield 20 mg/mL stock solution. DMSO stocks were diluted 20-fold in PBS pre-warmed to 35-37° C. 200 μl of the resulting solution (10 mg/kg dose) was injected subcutaneously near the tumor(s) every second day. The control group received 200 μl of 5% DMSO in PBS. Tumor size was measured with a caliper before each injection. The mice were sacrificed when the tumors reached maximal allowed size.

For experiment [23], the target named is 15N-labeled truncated K-Ras (1-166) (Homo sapiens, UniProt P01116). The note with it: 200 μM protein, 25° C., chemical shift perturbations Q25, N26, S32, T35, E37.
Description: The titration was followed by NMR ^15N-edited HSQC spectra acquired on a 600 MHz Bruker spectrometer at 25° C.
[24] abbreviates: A549, MTT, Table 2 HVR derivatives.
The mark [25] stands for this setting: A549, MTT, Table 1 helix 6 derivatives.

Turning to Ac-ESGPGLNLNSLNKK-e-Pal [HR-1], the GI50 in experiment [1] (setting [24]) is 250 nM. Further, the “GTP-bound Ras (fraction of control)” value in [2] is “reduction in activated (GTP-bound) Ras”. The “growth of Ras-dependent cancer cells (cell number, percent of control)” value in experiment [3] was “growth inhibition of Ras-dependent cancer cells”.
Turning to Ac-KKKKKKSKTKK-e-Pal [kR-4B-3], the GI50 in experiment [1] (A549, K-Ras mutant, Table 3) came to 1450 nM; in experiment [1] (setting [24]) it was 1750 nM; in experiment [4], 2900 nM; in experiment [5] it was 2400 nM; in experiment [6] it was 2700 nM; in [7] it was 2000 nM. Besides, the GI50 in experiment [8] was 1500 nM; in experiment [9], 1000 nM; in experiment [10], 2200 nM; in experiment [11], 3000 nM; in [12], 3300 nM; in [13], 3100 nM. In addition, the concentration for 50% growth inhibition (GI50) in [14] is 4800 nM; in experiment [15], > 10000 nM; in experiment [16], 6200 nM; in experiment [17] it was 7300 nM. Further, the “amount of Ras protein” value in [18] was “reduced the amount of Ras protein in lung cancer cells in a concentration-dependent manner”.
For the substance “Ac-RYQRIERVLTYFAK-e-Pal (all D) [kR-H6-23]”, the “fold more toxic to cancer cells than kR-H6-6” value in experiment [19] (retroinverso version versus kR-H6-6) amounted to 10 fold. In addition, in experiment [1] (setting [25]), the 50% growth inhibitory concentration (GI50) is 25 ± 10 nM. The “growth inhibition (cell number, percent of control)” value in [20] is “growth inhibition”.
As to “Ac-RYQRIQRVLTYFAK-e-Pal (all D) [kR-H6-30]”, the “additional fold reduction in GI50” value in experiment [19] (Glu162 replaced with Gln) worked out at 1.7 fold. This substance had a GI50 in experiment [1] (setting [25]) of 10 ± 5 nM.
For “Ac-YRLKKISKEEKTPGLNVKIKKK-e-Pal [kR-4A-3]”, the 50% growth inhibitory concentration (GI50) in [1] (A549, K-Ras mutant, Table 3) was found to be 3100 nM; in [1] (setting [24]) it was 1900 nM; in experiment [4], 2200 nM; in [5], 2600 nM; in [6], 3000 nM; in experiment [7], 2200 nM. Besides, the 50% growth inhibitory concentration (GI50) is 2400 nM in experiment [8]; 1500 nM in experiment [9]; 5900 nM in experiment [10]; 4000 nM in [11]; 5100 nM in experiment [12]; 7400 nM in experiment [13]. The concentration for 50% growth inhibition (GI50) was 6100 nM in experiment [14], > 10000 nM in experiment [15], 8200 nM in [16] and > 10000 nM in [17]. Moreover, the “amount of Ras protein” value in experiment [18] is “reduced the amount of Ras protein in lung cancer cells in a concentration-dependent manner”. The “Ras protein levels by immunostaining” value in [21] is given as “reduction in protein levels”. For the same substance, in experiment [21], the “pattern of K-Ras distribution” value was “lack of characteristic punctuate pattern of K-Ras distribution”.
Cap-YQRVQRVLTYFA (all D) [kR-H6-48] showed a GI50 in [1] (setting [25]) of 0.8 ± 0.5 nM. In addition, in experiment [22], the LLC1 isograft growth result is recorded as “inhibited LLC1 isograft growth”. Also, the “GTP-bound Ras (fraction of control)” value in experiment [2] was “reduction in activated (GTP-bound) Ras”. In addition, in experiment [3], the “growth of Ras-dependent cancer cells (cell number, percent of control)” value is “growth inhibition of Ras-dependent cancer cells”.
Consider Pal-e-KAFYTLVREIRQYR [kR-H6-6], for which, in experiment [1] (setting [25]), the GI50 amounted to 250 nM. Moreover, the “site of interaction with K-Ras” value in [23] is on record as “localized interaction of the peptide with the Switch I region of K-Ras”.

As usually defined, the GI50 is the concentration at which growth is held to half of that of the control.
